The record followed here is patent US10336761B2, “TGFβ receptor antagonist” (BRISTOL-MYERS SQUIBB COMPANY, priority 2015, dated 2019).

The structures appear in SMILES notation.

Broadly, the IC50 is the point on the concentration scale where inhibition reaches its midpoint. A higher IC50 goes with lower potency.

The test deals with HIS-TGFβR1 T204D (Homo sapiens (Human), UniProt P36897, T204D). The test can be described thus: HTRF probe-displacement assay, HIS-TGFβR1 T204D. It counts as binding. The following applies: 1 hour at room temperature. (TR-FRET usually uses a lanthanide donor and a delayed reading to cut background.)
HIS-TGFβR1 T204D, sequence (P36897 34-503 T204D): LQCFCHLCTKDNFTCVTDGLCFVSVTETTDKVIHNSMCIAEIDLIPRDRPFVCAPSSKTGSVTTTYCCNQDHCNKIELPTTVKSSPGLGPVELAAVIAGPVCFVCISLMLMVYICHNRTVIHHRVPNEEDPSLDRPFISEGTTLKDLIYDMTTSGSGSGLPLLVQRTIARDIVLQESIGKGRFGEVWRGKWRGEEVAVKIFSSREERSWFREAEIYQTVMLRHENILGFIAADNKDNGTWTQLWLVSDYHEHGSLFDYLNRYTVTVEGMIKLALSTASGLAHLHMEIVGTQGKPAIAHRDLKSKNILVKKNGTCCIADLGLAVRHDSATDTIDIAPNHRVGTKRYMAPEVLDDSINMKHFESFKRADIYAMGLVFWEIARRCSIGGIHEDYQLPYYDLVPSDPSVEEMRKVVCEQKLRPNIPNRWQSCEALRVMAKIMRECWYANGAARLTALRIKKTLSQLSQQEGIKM
Regarding `COc1cccc(-c2nc(Nc3ccncc3F)c3cc(CN4CCC(F)(F)CC4)cn3n2)n1` [Example 40, N-{6-[(4,4-difluoropiperidin-1-yl)methyl]-2-(6-methoxypyridin-2-yl)pyrrolo[2,1-f][1,2,4]triazin-4-yl}-3-fluoropyridin-4-amine], the IC50 amounted to 230 nM.

Take `COc1cccc(-c2nc(Nc3ccncc3F)c3ccc(F)n3n2)n1` [Example 41, 3-fluoro-N-[7-fluoro-2-(6-methoxypyridin-2-yl)pyrrolo[2,1-f][1,2,4]triazin-4-yl]pyridin-4-amine]: the IC50 was 87 nM.

With `CCc1cc2c(Nc3ccncc3F)nc(-c3cccc(OC)n3)nn2c1` [Example 42, N-[6-ethyl-2-(6-methoxypyridin-2-yl)pyrrolo[2,1-f][1,2,4]triazin-4-yl]-3-fluoropyridin-4-amine], the IC50 was determined as 160 nM.

Compound `COc1cccc(-c2nc(Nc3ccncc3F)c3cc(CCCCN4CCN(C)CC4)cn3n2)n1` [Example 43, 3-fluoro-N-[2-(6-methoxypyridin-2-yl)-6-[4-(4-methylpiperazin-1-yl)butyl]pyrrolo[2,1-f][1,2,4]triazin-4-yl]pyridin-4-amine] had an IC50 of 2200 nM.

Take `COc1cccc(-c2nc(Nc3ccncc3F)c3cc(CCN4CCN(C)CC4)cn3n2)n1` [Example 44, 3-fluoro-N-[2-(6-methoxypyridin-2-yl)-6-[2-(4-methylpiperazin-1-yl)ethyl]pyrrolo[2,1-f][1,2,4]triazin-4-yl]pyridin-4-amine]: the IC50 amounted to 1700 nM.

For `COc1cccc(-c2nc(Nc3ccncc3F)c3c(OCCN4CCCC4)ccn3n2)n1` [Example 45, 3-fluoro-N-[2-(6-methoxypyridin-2-yl)-5-[2-(pyrrolidin-1-yl)ethoxy]pyrrolo[2,1-f][1,2,4]triazin-4-yl]pyridin-4-amine], the IC50 came out at 4900 nM.

For the compound `COc1cccc(-c2nc(Nc3ccncc3F)c3c(CCO)ccn3n2)n1` [Example 46, 2-{4-[(3-fluoropyridin-4-yl)amino]-2-(6-methoxypyridin-2-yl)pyrrolo[2,1-f][1,2,4]triazin-5-yl}ethan-1-ol], the IC50 stood at 3 nM.

Consider `COc1cccc(-c2nc(Nc3ccncc3NC(C)=O)c3cccn3n2)n1` [Example 47, N-(4-{[2-(6-methoxypyridin-2-yl)pyrrolo[2,1-f][1,2,4]triazin-4-yl]amino}pyridin-3-yl)acetamide], for which the IC50 was 180 nM.

`COc1cccc(-c2nc(Nc3ccncc3F)c3c(C(C)(C)O)ccn3n2)n1` [Example 48, 2-{4-[(3-fluoropyridin-4-yl)amino]-2-(6-methoxypyridin-2-yl)pyrrolo[2,1-f][1,2,4]triazin-5-yl}propan-2-ol]: the IC50 stood at 32 nM.

Compound `Cc1cccc(-c2nc(Nc3ccncc3)c3cc(C(=O)NCCCN4CCCC4)cn3n2)n1` [Example 50, 2-(6-methylpyridin-2-yl)-4-[(pyridin-4-yl)amino]-N-[3-(pyrrolidin-1-yl)propyl]pyrrolo[2,1-f][1,2,4]triazine-6-carboxamide] showed an IC50 of 76 nM.

`Cc1cccc(-c2nc(Nc3ccncc3OCCCCN(C)C)c3cccn3n2)n1` [Example 51, 3-[4-(dimethylamino)butoxy]-N-[2-(6-methylpyridin-2-yl)pyrrolo[2,1-f][1,2,4]triazin-4-yl]pyridin-4-amine] gave an IC50 of 30 nM.

As to `Cc1cccc(-c2nc(Nc3ccncc3F)c3ccc(C(=O)O)n3n2)n1` [Example 52, 4-[(3-fluoropyridin-4-yl)amino]-2-(6-methylpyridin-2-yl)pyrrolo[2,1-f][1,2,4]triazine-7-carboxylic acid], the IC50 was found to be 35 nM.

On to `Nc1cccc(-c2nc(Nc3ccncc3F)c3cccn3n2)n1` [Example 53, 2-(6-aminopyridin-2-yl)-N-(3-fluoropyridin-4-yl)pyrrolo[2,1-f][1,2,4]triazin-4-amine], for which the IC50 turned out to be 1.6 nM.

As for `Clc1cnccc1Nc1nc(-c2ccccn2)nn2cccc12` [Example 54, 3-chloro-N-[2-(pyridin-2-yl)pyrrolo[2,1-f][1,2,4]triazin-4-yl]pyridin-4-amine], the IC50 is 1.6 nM.

`Fc1cc(Nc2nc(-c3ccccn3)nn3cccc23)ccn1` [Example 55, 2-fluoro-N-[2-(pyridin-2-yl)pyrrolo[2,1-f][1,2,4]triazin-4-yl]pyridin-4-amine] displayed an IC50 of 69 nM.

Take `COc1cccc(-c2nc(Nc3ccncc3F)c3cccn3n2)n1` [Example 58, 3-fluoro-N-[2-(6-methoxypyridin-2-yl)pyrrolo[2,1-f][1,2,4]triazin-4-yl]pyridin-4-amine]: the IC50 was 4 nM.

As to `Cc1cccc(-c2nc(Nc3ccncc3Cl)c3cccn3n2)n1` [Example 59, 3-chloro-N-[2-(6-methylpyridin-2-yl)pyrrolo[2,1-f][1,2,4]triazin-4-yl]pyridin-4-amine], the IC50 was 1.6 nM.

`COc1cccc(-c2nc(Nc3ccncc3Cl)c3cccn3n2)n1` [Example 60, 3-chloro-N-[2-(6-methoxypyridin-2-yl)pyrrolo[2,1-f][1,2,4]triazin-4-yl]pyridin-4-amine] showed an IC50 of 5.4 nM.

For `Fc1cnccc1Nc1nc(-c2cc(Cl)ccn2)nn2cccc12` [Example 63, N-[2-(4-chloropyridin-2-yl)pyrrolo[2,1-f][1,2,4]triazin-4-yl]-3-fluoropyridin-4-amine], the IC50 stood at 150 nM.

`Cc1cccc(-c2nc(Nc3ccncn3)c3cccn3n2)n1` [Example 64, N-[2-(6-methylpyridin-2-yl)pyrrolo[2,1-f][1,2,4]triazin-4-yl]pyrimidin-4-amine]: the IC50 was found to be 2.2 nM.

Consider `Fc1ccc(-c2nc(Nc3ccncc3F)c3cccn3n2)nc1` [Example 65, 3-fluoro-N-[2-(5-fluoropyridin-2-yl)pyrrolo[2,1-f][1,2,4]triazin-4-yl]pyridin-4-amine], for which the concentration for half-maximal inhibition (IC50) worked out at 0.79 nM.

`Fc1cnccc1Nc1nc(-c2ccc(F)c(C(F)F)n2)nn2cccc12` [Example 66, N-{2-[6-(difluoromethyl)-5-fluoropyridin-2-yl]pyrrolo[2,1-f][1,2,4]triazin-4-yl}-3-fluoropyridin-4-amine] registered an IC50 of 0.46 nM.

As for `COc1cccc(-c2nc(Nc3ccncn3)c3cccn3n2)n1` [Example 67, N-[2-(6-methoxypyridin-2-yl)pyrrolo[2,1-f][1,2,4]triazin-4-yl]pyrimidin-4-amine], the IC50 amounted to 55 nM.

In turn, `COC(=O)Nc1cc(Nc2nc(-c3cccc(OC)n3)nn3cccc23)ccn1` [Example 68, Methyl N-(4-{[2-(6-methoxypyridin-2-yl)pyrrolo[2,1-f][1,2,4]triazin-4-yl]amino}pyridin-2-yl)carbamate] yielded an IC50 of 5 nM.

`Cc1nc(-c2nc(Nc3ccncc3)c3cccn3n2)ccc1F` [Example 69, N-[2-(5-fluoro-6-methylpyridin-2-yl)pyrrolo[2,1-f][1,2,4]triazin-4-yl]pyridin-4-amine] showed an IC50 of 1.9 nM.

The compound `Fc1cccc(-c2nc(Nc3ccncc3Cl)c3cccn3n2)n1` [Example 70, 3-chloro-N-[2-(6-fluoropyridin-2-yl)pyrrolo[2,1-f][1,2,4]triazin-4-yl]pyridin-4-amine] had an IC50 of 0.39 nM.

The compound `Cc1cncc(-c2nc(Nc3ccncc3F)c3cccn3n2)n1` [Example 71, 3-fluoro-N-[2-(6-methylpyrazin-2-yl)pyrrolo[2,1-f][1,2,4]triazin-4-yl]pyridin-4-amine] returned an IC50 of 96 nM.

`CCNC(=O)Nc1cc2c(Nc3ccncc3F)nc(-c3cccc(OC)n3)nn2c1` [Example 72, 3-ethyl-1-{4-[(3-fluoropyridin-4-yl)amino]-2-(6-methoxypyridin-2-yl)pyrrolo[2,1-f][1,2,4]triazin-6-yl}urea]: the IC50 was determined as 370 nM.

As to `COC(=O)Nc1cc2c(Nc3ccncc3F)nc(-c3cccc(OC)n3)nn2c1` [Example 73, Methyl N-{4-[(3-fluoropyridin-4-yl)amino]-2-(6-methoxypyridin-2-yl)pyrrolo[2,1-f][1,2,4]triazin-6-yl}carbamate], the IC50 stood at 74 nM.

In the case of `FC(F)(F)c1cccc(-c2nc(Nc3ccncc3OCCCN3CCOCC3)c3cccn3n2)n1` [Example 75], the 50% inhibitory concentration (IC50) worked out at 210 nM.

`Cc1cccc(-c2nc(Nc3ccncc3F)c3c(CN4CCC(F)(F)CC4)ccn3n2)n1` [Example 76, N-{5-[(4,4-difluoropiperidin-1-yl)methyl]-2-(6-methylpyridin-2-yl)pyrrolo[2,1-f][1,2,4]triazin-4-yl}-3-fluoropyridin-4-amine] yielded an IC50 of 0.25 nM.

Compound `CS(=O)(=O)Nc1cccc(-c2nc(Nc3ccncc3F)c3cccn3n2)n1` [Example 77, N-(6-{4-[(3-fluoropyridin-4-yl)amino]pyrrolo[2,1-f][1,2,4]triazin-2-yl}pyridin-2-yl)methanesulfonamide] returned an IC50 of 12 nM.

The compound `Fc1cnccc1Nc1nc(-c2cccc(C(F)F)n2)nn2cccc12` [Example 78, N-{2-[6-(difluoromethyl)pyridin-2-yl]pyrrolo[2,1-f][1,2,4]triazin-4-yl}-3-fluoropyridin-4-amine] yielded an IC50 of 0.92 nM.

On to `C=CCOc1cnccc1Nc1nc(-c2ccccn2)nn2cccc12` [Example 79, 3-(prop-2-en-1-yloxy)-N-[2-(pyridin-2-yl)pyrrolo[2,1-f][1,2,4]triazin-4-yl]pyridin-4-amine], for which the IC50 turned out to be 13 nM.

With `FC(F)c1cccc(-c2nc(Nc3ccncc3Cl)c3cccn3n2)n1` [Example 80, 3-chloro-N-{2-[6-(difluoromethyl)pyridin-2-yl]pyrrolo[2,1-f][1,2,4]triazin-4-yl}pyridin-4-amine], the IC50 is 1.1 nM.

In the case of `Cn1nccc1-c1nc(Nc2ccncc2Cl)c2cccn2n1` [Example 81, 3-chloro-N-[2-(1-methyl-1H-pyrazol-5-yl)pyrrolo[2,1-f][1,2,4]triazin-4-yl]pyridin-4-amine], the IC50 stood at 360 nM.

As for `FC(F)(F)c1cccc(-c2nc(Nc3ccnc(Cl)c3)c3cccn3n2)n1` [Example 82, 2-chloro-N-{2-[6-(trifluoromethyl)pyridin-2-yl]pyrrolo[2,1-f][1,2,4]triazin-4-yl}pyridin-4-amine], the IC50 stood at 2700 nM.

In the case of `NC(=O)c1cnccc1Nc1nc(-c2ccccn2)nn2cccc12` [Example 83, 4-{[2-(pyridin-2-yl)pyrrolo[2,1-f][1,2,4]triazin-4-yl]amino}pyridine-3-carboxamide], the IC50 amounted to 0.76 nM.
